Values of other authors in patent US6537525B1, “Medicated chewing-gum” (priority 1997, dated 2003).

Tests used:
[1] = system: esophageal lesions associated with heartburn; settings: versus placebo or ranitidine
[2] = antacid; versus magnesium trisilicate or magnesium carbonate

## NC(N)=Nc1nc(CSCCC(N)=NS(N)(=O)=O)cs1 [Famotidine]
[1]
  effectiveness in the healing of esophageal lesions associated with heartburn: significantly more effective than placebo or ranitidine

## [O]=[Mg] [Magnesium oxide, magnesium oxide]
[2]
  potency relative to magnesium trisilicate or magnesium carbonate: 8 to 10 times
